# Measurements published in ChEMBL document CHEMBL1136426, “Synthesis and collateral dilator activity of nitroxyalkylamides having direct or latent sulfhydryl moieties” (2003).
# Key:
# Canis familiaris [1] = organism: Canis familiaris; assay: Ratio of the CIAUC value to that of nitroglycerin (NTG ratio); assay type: functional, Canis lupus familiaris
# Canis familiaris [2] = assay: Maximum collateral index in anesthetized dog at the dose of 0.01 mg/kg, i.v.; assay type: functional, Canis lupus familiaris; conditions: route intravenous
# Canis familiaris [3] = assay: Collateral index in anesthetized dog at the dose of 0.01 mg/kg, i.v. after 60 minutes of administration; assay type: functional, Canis lupus familiaris; conditions: route intravenous
# Canis familiaris [4] = assay: Maximum […] was measured in anesthetized dog as percent at the dose of 0.01 mg/kg, i.v.; assay type: functional, Canis lupus familiaris; conditions: route intravenous
# Canis familiaris [5] = assay: Collateral index in anesthetized dog at the dose of 0.03 mg/kg, i.v. after 60 minutes of administration; assay type: functional, Canis lupus familiaris; conditions: route intravenous
# Canis familiaris [6] = assay: Maximum collateral index in anesthetized dog at the dose of 0.03 mg/kg, i.v.; assay type: functional, Canis lupus familiaris; conditions: route intravenous
# Canis familiaris [7] = assay: Maximum […] was measured in anesthetized dog as percent at the dose of 0.03 mg/kg, i.v.; assay type: functional, Canis lupus familiaris; conditions: route intravenous
# [8] = Nitroglycerin ratio to that was measured; assay type: functional
Structure (SMILES),NG ratio (Canis familiaris [1]),Max collateral index (Canis familiaris [2]),Collateral index (Canis familiaris [3]),Max hypotension (Canis familiaris [4]) [%],Collateral index (Canis familiaris [5]),Max collateral index (Canis familiaris [6]),Max hypotension (Canis familiaris [7]) [%],NG ratio [8]
O=C1NC(C(=O)NCCO[N+](=O)[O-])C(c2cccs2)S1 (centres undefined),0.5,8,3,0,–,–,–,–
O=C1N[C@H](C(=O)NCCO[N+](=O)[O-])CS1,1.9,23,16,-8,–,–,–,–
CC(C)C(=O)N[C@@H](CSC(=O)C(C)C)C(=O)NCCO[N+](=O)[O-],1.5,25,9,-14,–,–,–,–
C[C@@H](CO[N+](=O)[O-])NC(=O)[C@@H]1CSC(=O)N1,1.1,–,–,–,15,16,-5,–
CC(=O)N[C@@H](CSC(=O)c1ccccc1)C(=O)NCCO[N+](=O)[O-],2.1,49,5,-28,–,–,–,–
O=[N+]([O-])OCC(CO[N+](=O)[O-])O[N+](=O)[O-] [NITROGLYCERIN],1,–,–,–,4,33,-55,–
O=C1N[C@H](C(=O)NCCCO[N+](=O)[O-])CS1,0.1,–,–,–,6,4,0,–
CCCC[C@@H](CO[N+](=O)[O-])NC(=O)[C@@H]1CSC(=O)N1,1.6,–,–,–,17,21,-4,–
CC(=O)N[C@@H](CSC(=O)C(C)(C)C)C(=O)NCCO[N+](=O)[O-],2.5,45,8,-23,–,–,–,–
CC1(C)SC(=O)N[C@@H]1C(=O)NCCO[N+](=O)[O-],0.6,–,–,–,8,9,-2,–
CC(=O)N[C@@H](CS)C(=O)NCCO[N+](=O)[O-],1.9,39,9,-52,–,–,–,–
O=C1NC(C(=O)NCCO[N+](=O)[O-])C(c2cccc3ccccc23)S1 (centres undefined),–,9,9,-2,–,–,–,0.5
CC(=O)N[C@@H](CSC(=O)OCC(C)C)C(=O)NCCO[N+](=O)[O-],1.3,25,6,-12,–,–,–,–
C[C@@H](CO[N+](=O)[O-])NC(=O)[C@H]1CSC(=O)N1,0.3,–,–,–,3,5,-1,–
C[C@@H]1SC(=O)N[C@@H]1C(=O)NCCO[N+](=O)[O-],0.5,9,4,-2,–,–,–,–
C[C@H](CO[N+](=O)[O-])NC(=O)[C@H]1CSC(=O)N1,0.4,–,–,–,5,6,-3,–

Structure (SMILES),NG ratio (Canis familiaris [1]),Max collateral index (Canis familiaris [2]),Collateral index (Canis familiaris [3]),Max hypotension (Canis familiaris [4]) [%],Collateral index (Canis familiaris [5]),Max collateral index (Canis familiaris [6]),Max hypotension (Canis familiaris [7]) [%],NG ratio [8]
O=C1N[C@@H](C(=O)NCCO[N+](=O)[O-])CS1,0.8,–,–,–,11,14,-8,–
O=C1NC(C(=O)NCCO[N+](=O)[O-])C(c2cccnc2)S1 (centres undefined),–,2,0,-4,–,–,–,0.1
O=C1NC(C(=O)NCCO[N+](=O)[O-])C(c2ccco2)S1 (centres undefined),0.4,–,–,–,3,6,-3,–
C[C@H](CO[N+](=O)[O-])NC(=O)[C@@H]1CSC(=O)N1,0.9,–,–,–,12,12,-4,–
O=C1NC(C(=O)NCCO[N+](=O)[O-])C(Cc2ccccc2)S1 (centres undefined),1,12,7,-3,–,–,–,–
CC(=O)N[C@@H](CSC(=O)OC(C)(C)C)C(=O)NCCO[N+](=O)[O-],0.8,21,11,-8,–,–,–,–
CC(=O)N[C@@H](CSC(C)=O)C(=O)NCCO[N+](=O)[O-],2,52,6,-44,–,–,–,–
O=C(N[C@@H](CS)C(=O)NCCO[N+](=O)[O-])c1cccnc1,0,2,0,-3,–,–,–,–
O=C1N[C@H](C(=O)NCCCCO[N+](=O)[O-])CS1,0,2,0,0,–,–,–,–
CC[C@@H](CO[N+](=O)[O-])NC(=O)[C@@H]1CSC(=O)N1,0.5,–,–,–,7,7,-1,–
CCC[C@@H](CO[N+](=O)[O-])NC(=O)[C@@H]1CSC(=O)N1,1.3,–,–,–,17,18,-7,–
O=C1NC(C(=O)NCCO[N+](=O)[O-])C(c2ccccc2)S1 (centres undefined),1,–,–,–,9,18,-6,–
CC(CNC(=O)[C@@H]1CSC(=O)N1)O[N+](=O)[O-] (some centres undefined),0,0,0,0,–,–,–,–
CCOC(=O)SC[C@H](NC(C)=O)C(=O)NCCO[N+](=O)[O-],2.4,39,16,-18,–,–,–,–
CC(=O)N[C@@H](CSC(=O)c1cccnc1)C(=O)NCCO[N+](=O)[O-],1.1,20,9,-24,–,–,–,–
